Data published in paper PMC4675551, “Protein Kinase C-Independent Inhibition of Organic Cation Transporter 1 Activity by the Bisindolylmaleimide Ro 31-8220” (PLoS ONE, 2015).

Legend:
Assay type in all cases: cell-based
[1] = biological target: T1, organic cation transporter 1 (OCT1) (Homo sapiens, UniProt O15245); experiment: inhibition of […]-TEA uptake in HEK-OCT1 cells, […], more than […] inhibition; conditions: read-out: % inhibition at 5 μM
T1 construct: gene SLC22A1; NM_003057 overexpressed in HEK293 cells
T1 sequence (O15245 1-554): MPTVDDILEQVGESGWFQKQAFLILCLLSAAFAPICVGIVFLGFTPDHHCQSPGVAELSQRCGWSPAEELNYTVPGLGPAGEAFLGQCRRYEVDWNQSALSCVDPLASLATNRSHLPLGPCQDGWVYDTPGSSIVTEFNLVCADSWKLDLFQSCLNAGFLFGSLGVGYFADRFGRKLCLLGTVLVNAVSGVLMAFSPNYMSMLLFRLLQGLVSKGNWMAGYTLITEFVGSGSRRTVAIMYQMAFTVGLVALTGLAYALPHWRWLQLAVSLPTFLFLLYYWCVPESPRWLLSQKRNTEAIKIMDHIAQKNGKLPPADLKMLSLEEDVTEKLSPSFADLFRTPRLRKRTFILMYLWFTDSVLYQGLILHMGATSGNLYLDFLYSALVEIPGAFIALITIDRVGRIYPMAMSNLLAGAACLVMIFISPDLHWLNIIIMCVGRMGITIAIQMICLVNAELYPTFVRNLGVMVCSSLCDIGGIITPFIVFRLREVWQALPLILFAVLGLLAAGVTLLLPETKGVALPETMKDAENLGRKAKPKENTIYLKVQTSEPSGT

[2] = biological target: T1, organic cation transporter 1 (OCT1); experiment: inhibition of TEA and DAPI uptake in HEK-OCT1 cells at […]
[3] = biological target: T2, multidrug and toxin extrusion protein 1 (MATE1) (Homo sapiens, UniProt Q96FL8); experiment: inhibition of […]-TEA uptake in HEK-MATE1 cells
T2 construct: gene SLC47A1; NM_018242 overexpressed in HEK293 cells
T2 sequence (Q96FL8 1-570): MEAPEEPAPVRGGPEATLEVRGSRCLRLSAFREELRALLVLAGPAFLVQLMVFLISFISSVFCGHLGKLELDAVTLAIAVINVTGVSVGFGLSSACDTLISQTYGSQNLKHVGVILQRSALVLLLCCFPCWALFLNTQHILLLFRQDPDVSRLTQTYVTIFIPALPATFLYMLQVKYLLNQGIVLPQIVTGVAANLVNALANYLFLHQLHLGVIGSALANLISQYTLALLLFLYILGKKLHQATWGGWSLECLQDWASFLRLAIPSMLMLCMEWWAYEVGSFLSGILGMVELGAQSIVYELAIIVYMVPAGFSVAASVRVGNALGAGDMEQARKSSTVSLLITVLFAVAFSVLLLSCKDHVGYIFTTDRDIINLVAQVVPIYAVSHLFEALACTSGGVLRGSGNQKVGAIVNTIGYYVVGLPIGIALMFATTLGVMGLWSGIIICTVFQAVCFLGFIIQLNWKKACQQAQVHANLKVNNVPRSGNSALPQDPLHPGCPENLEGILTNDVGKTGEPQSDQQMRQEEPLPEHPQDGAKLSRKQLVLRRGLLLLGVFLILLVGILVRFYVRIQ

[4] = biological target: T1, organic cation transporter 1 (OCT1); experiment: cis-inhibition of […]-TEA uptake in HEK-OCT1 cells
[5] = biological target: T3, organic cation transporter 2 (OCT2) (Homo sapiens, UniProt O15244); experiment: cis-stimulation of […]-TEA uptake in HEK-OCT2 cells
T3 construct: gene SLC22A2; NM_003058 overexpressed in HEK293 cells
T3 sequence (O15244 1-555): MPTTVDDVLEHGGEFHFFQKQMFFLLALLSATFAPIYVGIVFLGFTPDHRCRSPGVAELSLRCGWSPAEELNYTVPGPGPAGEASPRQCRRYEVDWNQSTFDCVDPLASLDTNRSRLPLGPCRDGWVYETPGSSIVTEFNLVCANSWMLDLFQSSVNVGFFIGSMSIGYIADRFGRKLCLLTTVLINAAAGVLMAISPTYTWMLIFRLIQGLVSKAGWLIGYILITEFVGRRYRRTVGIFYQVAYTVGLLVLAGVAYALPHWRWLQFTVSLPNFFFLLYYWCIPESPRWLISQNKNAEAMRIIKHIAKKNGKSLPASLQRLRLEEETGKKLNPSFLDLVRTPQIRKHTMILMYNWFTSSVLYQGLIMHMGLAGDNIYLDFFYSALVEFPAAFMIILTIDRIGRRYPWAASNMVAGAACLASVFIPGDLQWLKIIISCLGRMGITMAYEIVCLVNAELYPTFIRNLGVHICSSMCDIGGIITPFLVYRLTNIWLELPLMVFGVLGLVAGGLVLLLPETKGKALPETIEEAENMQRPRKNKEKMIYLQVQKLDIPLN

MATE2-K = biological target: T4, MATE2-K (Homo sapiens, UniProt Q86VL8); experiment: inhibition of […]-TEA uptake in HEK-MATE2-K cells
T4 construct: gene SLC47A2; NM_152908 overexpressed in HEK293 cells
T4 sequence (Q86VL8 1-566 isoform Q86VL8-3): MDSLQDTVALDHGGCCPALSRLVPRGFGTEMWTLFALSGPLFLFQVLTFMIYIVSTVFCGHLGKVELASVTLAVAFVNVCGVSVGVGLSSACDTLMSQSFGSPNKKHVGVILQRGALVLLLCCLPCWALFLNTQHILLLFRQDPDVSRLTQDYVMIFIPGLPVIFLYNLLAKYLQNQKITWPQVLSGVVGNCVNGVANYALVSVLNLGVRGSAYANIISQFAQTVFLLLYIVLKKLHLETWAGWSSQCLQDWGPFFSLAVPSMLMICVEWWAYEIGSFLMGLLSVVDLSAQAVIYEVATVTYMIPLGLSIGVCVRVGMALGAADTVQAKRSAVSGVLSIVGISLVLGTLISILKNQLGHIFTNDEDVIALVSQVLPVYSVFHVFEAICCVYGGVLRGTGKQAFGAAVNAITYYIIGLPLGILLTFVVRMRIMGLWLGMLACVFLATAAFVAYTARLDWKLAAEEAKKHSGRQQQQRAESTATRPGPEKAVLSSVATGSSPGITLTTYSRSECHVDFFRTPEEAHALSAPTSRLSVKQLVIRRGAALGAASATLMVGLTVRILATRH

| inhibition at 5 µM [1] | SMILES | further results |
| --- | --- | --- |
| > 50% | CN(C)C[C@@H]1CCn2cc(c3ccccc32)C2=C(C(=O)NC2=O)c2cn(c3ccccc23)CCO1 [LY 333531] |  |
| > 50% | Cn1cc(C2=C(c3cn(CCCN)c4ccccc34)C(=O)NC2=O)c2ccccc21 [BIM-VIII] |  |

The remaining lines, values behind:

| SMILES | inhibition at 5 µM [1] | further results |
| --- | --- | --- |
| NCCCn1cc(C2=C(c3c[nH]c4ccccc34)C(=O)NC2=O)c2ccccc21 [BIM-III] | > 50% |  |
| COc1ccc(CCN(C)CCCC(C#N)(c2ccc(OC)c(OC)c2)C(C)C)cc1OC (stereo not shown) [verapamil] |  | inhibition of TEA and DAPI uptake in HEK-OCT1 cells at 50 μM [2]: the reference OCT1 inhibitor verapamil similarly inhibited DAPI uptake |
| CN1CCCC1CCn1cc(C2=C(c3c[nH]c4ccccc34)C(=O)NC2=O)c2ccccc21 (stereo not shown) [BIM-II] | > 50% |  |
| CN(C)CCCn1cc(C2=C(c3c[nH]c4ccccc34)C(=O)NC2=O)c2ccccc21 [BIM-I] | > 50% |  |
| Cn1cc(C2=C(c3cn(CCCSC(=N)N)c4ccccc34)C(=O)NC2=O)c2ccccc21 [BIM-IX, Ro 31–8220] |  | IC50 [3]: 39 ± 6 nM; IC50 [4]: 180 ± 50 nM; EC50 [5]: 400 ± 10 nM; IC50 (MATE2-K): 190 ± 70 nM |
